# Reference: patent publication US20150257394A1, “TEA EXTRACTS AND USES IN PROMOTING PLANT GROWTH” (PLANT ACTIVITY LTD., priority 2012, published 2015)
# Test system: wheat seeds
# Experiment: Effect of preservative on promotion of wheat seedling root growth by black tea extract (Example 10)
# Format: in vivo
# Conditions: 1% solution of methyl paraben predissolved in hexalene glycol
# Protocol: To evaluate whether a preservative affects the benefits of black tea extracts on wheat germination and early root growth, Malawi black tea extracts and Kenya black tea extracts were prepared according to Example 1 and used to treat wheat seeds (0.6 ml/kg seed) in combination with a preservative (1% solution of methyl paraben that has been predissolved in hexalene glycol (30:1 ratio of hexalene glycol to methyl paraben)) or without the preservative substantially according to Example 2. Root system measurements were performed according to Example 6.
smiles,measurement,value
COC(=O)c1ccc(O)cc1 [methyl paraben],effect of preservative on the benefits of the black tea extracts,did not negatively affect
